Measurements taken from US11236129B2, “IL-17A binding peptides and medical uses thereof” (Dompe' Farmaceutici S.P.A., priority 2018, dated 2022).
Read-outs that look alike come from different tables or passages of the source. Residues, ends and D or L forms follow the SMILES beside them.

Tests used:
[1] = test system: human corneal epithelial cells (hCEPIC); test: Permeability test across stratified human corneal epithelial cells; type: in vitro ADME; conditions: for Permeability (Papp): 50 μM, stratified human corneal epithelial cells
Procedure: (§1) The objective of this study was to evaluate the apparent permeability coefficient (Papp) value of the peptides across stratified human corneal epithelial cells. All peptides were tested at 50 μM in duplicate.
(§2) In particular, human corneal epithelial cells (hCEPIC) were stratified on Transwell cell culture inserts (Corning, N.Y., USA). The permeation experiments were performed taking samples from receiver chambers at 5, 30, 60 minutes time points and from donor chambers at the same time points. Each aliquot collected was analyzed by HPLC instrument (Knauer) equipped with C18 Vertex Plus Column (Knauer) thermostatically controlled at 40° C. The rate (apparent permeability coefficient, Papp) of the study compounds was calculated and compared to the Papp values of the low and high permeability markers, 6-carboxyfluorescein and Rhodamine B, respectively.
(§3) The apparent permeability coefficient (Papp) was calculated according to Equation: Papp=(I/A*C0)(dM/dt)
(§4) where dM/dt is the flux (nanomoles per second) across the cell layers;
(§5) A (square centimeters) is the exposed surface area of the insert membrane;
(§6) C0 is the initial drug concentration (micromolar) in the donor compartment at t=0 (Xiang et al., Drug Metab Dispos. 2009 May; 37(5):992-8.

[2] = Isoelectric point, log D and log P (SiriusT3); type: physicochemical; conditions: for IP (isoelectric point): 25±1° C., 0.15 M KCl
[3] = type: physicochemical; conditions: pH 7.8
Summary of the method: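 Peptides dissolved in phosphate buffer pH 7.8 as 10 mM stocks (more dilute for less soluble ones) and stored at 25 °C. Content measured by reversed-phase UHPLC (C18, 0.5% formic acid water/acetonitrile gradient, DAD 220-400 nm, ESI-MS ion trap) after 1:100 dilution to 100 μM, against 100 μM standards, at T0, 3 days and 1 week.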

[4] = Permeability test across stratified human corneal epithelial cells; type: in vitro ADME
Procedure: as §1, §2, §3, §4, §5, §6

mouse IL-17A = target: T1, mouse IL-17A (Mus musculus, UniProt Q62386); test: Peptide-IL-17A affinity test (SPR); type: binding
T1 sequence (Q62386 26-158): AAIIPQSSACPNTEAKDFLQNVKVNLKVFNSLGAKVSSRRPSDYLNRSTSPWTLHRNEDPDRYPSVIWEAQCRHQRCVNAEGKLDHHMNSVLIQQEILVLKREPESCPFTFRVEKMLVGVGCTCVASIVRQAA
Procedure: The peptide of the prior art HAP (SEQ ID NO:1) and peptide of SEQ ID NO:2 were tested for affinity for mIL-17A, as described below. For the immobilization of mouse IL-17A protein, amine coupling chemistry was used. […] Covalent immobilization of mIL17 results in stable attachment of 3000 RU of ligand to the surface. […] The molecules were diluted at different concentrations (from 62.5 to 1000 nM) in HBS-EP buffer and injected on the sensorchip for 4 minutes and allowed to dissociate for 5 minutes. After each run, the sensorchip was regenerated by 2 M NaCl injection. Based on the sensorgrams (FIG. 1, panel A) and using the BIAevaluation software, the Scatchard analysis of the RU values at equilibrium allowed to determine an affinity constant as a function of the analyte concentration in solution (FIG. 6, panel B).

[5] = target: IL-17RA/IL17RC dimerization induced by IL-17A (Homo sapiens, UniProt Q16552); test: IL-17RA/IL17RC dimerization assay in response to IL-17A (PathHunter Cytokine Receptor Assay); type: cell-based; conditions: IL-17A at EC80; read-out: IC50 in IL-17RA/IL7RC dimerization assay
IL-17RA/IL17RC dimerization induced by IL-17A, sequence (Q16552 24-155): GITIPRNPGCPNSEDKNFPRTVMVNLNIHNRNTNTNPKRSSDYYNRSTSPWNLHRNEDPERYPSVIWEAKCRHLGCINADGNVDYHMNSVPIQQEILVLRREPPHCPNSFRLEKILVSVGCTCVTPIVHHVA
Summary of the method: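 PathHunter cells with IL-17RA and IL-17RC tagged for β-galactosidase complementation were preincubated 60 min with peptide (1% vehicle). IL-17A was then added at EC80 for 6–16 h at 37 °C, and chemiluminescence was read. Inhibition is relative to the EC80 and vehicle controls.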

IL-17A = target: T2, IL-17A (Homo sapiens, UniProt Q16552); conditions: psoriasis, clinical trials; cited from earlier work
T2 construct: host or cells: psoriasis patients (endogenous IL-17A)
T2 sequence (Q16552 24-155): as above

[6] = octanol/ISA water, read-out: logP
[7] = pH 7.4, pH 7.4, octanol/ISA water, read-out: Log D (7.4)

solubility [3] | Papp ([4]; Permeability (Papp)) | IC50 [5] | IP (isoelectric point) [2] | logP [2, 6] | logD [2, 7] | Compound | further results
– | – | – | – | – | – | O=C(O)c1ccc2c(c1)C1(OC2=O)c2ccc(O)cc2Oc2cc(O)ccc21 [6-carboxyfluorescein, reference compound] | Permeability (Papp) [1]: 0.61±0.33 10^−6 cm/sec
– | – | – | – | – | – | CCN(CC)c1ccc2c(-c3ccccc3C(=O)O)c3ccc(=[N+](CC)CC)cc-3oc2c1.[Cl-] [Rhodamine B, reference compound] | Permeability (Papp) [1]: 51.26±5.44 10^−6 cm/sec
> 10000 µM | 28 ×10⁻⁶ cm/s | < 400 nM | 4.25 | – | – | CC[C@H](C)[C@H](NC(C)=O)C(=O)N[C@@H](Cc1c[nH]cn1)C(=O)N[C@H](C(=O)N[C@H](C(=O)N[C@H](C(=O)N1CCC[C@H]1C(=O)N[C@@H](C)C(=O)N[C@@H](CC(=O)O)C(=O)N[C@@H](CC(C)C)C(=O)N[C@@H](Cc1c[nH]c2ccccc12)C(=O)N[C@@H](CC(=O)O)C(=O)N[C@@H](Cc1c[nH]c2ccccc12)C(=O)N[C@H](C(=O)N[C@@H](CCC(=O)O)C(=O)N[C@@H](CCCCN)C(N)=O)[C@@H](C)CC)[C@@H](C)CC)[C@@H](C)O)C(C)C [SEQ ID NO: 11] (Ac-IHVTIPADLWDWIEK-NH2) | logP ([2]; logP): 1.05; logD ([2]; pH 7.4, Log D (7.4)): -2.92
> 10000 µM | 28.9 ×10⁻⁶ cm/s | < 400 nM | 8.99 | – | – | CC[C@H](C)[C@H](NC(C)=O)C(=O)N[C@@H](Cc1c[nH]cn1)C(=O)N[C@H](C(=O)N[C@H](C(=O)N[C@H](C(=O)N1CCC[C@H]1C(=O)N[C@@H](C)C(=O)N[C@@H](CC(=O)O)C(=O)N[C@@H](CC(C)C)C(=O)N[C@@H](Cc1c[nH]c2ccccc12)C(=O)N[C@@H](CC(=O)O)C(=O)N[C@@H](Cc1c[nH]c2ccccc12)C(=O)N[C@H](C(=O)N[C@@H](CCCNC(=N)N)C(=O)N[C@@H](CCCNC(=N)N)C(N)=O)C(C)C)[C@@H](C)CC)[C@@H](C)O)C(C)C [SEQ ID NO: 14] (Ac-IHVTIPADLWDWVRR-NH2) | logP ([2]; logP): -5.4; logD ([2]; pH 7.4, Log D (7.4)): -2.8
< 50 µM | 83.7 ×10⁻⁶ cm/s | < 500 nM | 8.99 | -0.38 | -0.93 | CC[C@H](C)[C@H](NC(=O)[C@@H](NC(=O)[C@@H](NC(=O)[C@H](Cc1c[nH]cn1)NC(=O)[C@@H](NC(C)=O)C(C)C)C(C)C)[C@@H](C)O)C(=O)N1CCC[C@H]1C(=O)N[C@@H](C)C(=O)N[C@@H](CCC(=O)O)C(=O)N[C@@H](CC(C)C)C(=O)N[C@@H](Cc1c[nH]c2ccccc12)C(=O)N[C@@H](CCC(=O)O)C(=O)N[C@@H](Cc1c[nH]c2ccccc12)C(=O)N[C@H](C(=O)N[C@@H](CCCNC(=N)N)C(=O)N[C@@H](CCCNC(=N)N)C(N)=O)C(C)C [SEQ ID NO: 111] (Ac-VHVTIPAELWEWVRR-NH2) | permeability compared to high permeability standard Rhodamine B (in words) [1]: higher permeability compared to Rhodamine B
< 50 µM | – | < 500 nM | 8.99 | -4.76 | – | CC[C@H](C)[C@H](NC(=O)[C@@H](NC(=O)[C@H](Cc1ccccc1)NC(=O)[C@H](Cc1c[nH]cn1)NC(=O)[C@@H](NC(C)=O)C(C)C)[C@@H](C)O)C(=O)N1CCC[C@H]1C(=O)N[C@@H](C)C(=O)N[C@@H](CC(=O)O)C(=O)N[C@@H](CC(C)C)C(=O)N[C@@H](Cc1c[nH]c2ccccc12)C(=O)N[C@@H](CCC(=O)O)C(=O)N[C@@H](Cc1c[nH]c2ccccc12)C(=O)N[C@H](C(=O)N[C@@H](CCCNC(=N)N)C(=O)N[C@@H](CCCNC(=N)N)C(N)=O)C(C)C [SEQ ID NO: 112] (Ac-VHFTIPADLWEWVRR-NH2) | –
< 50 µM | 76.8 ×10⁻⁶ cm/s | < 500 nM | 8.99 | -0.13 | -3.47 | CC[C@H](C)[C@H](NC(=O)[C@H](CCC(N)=O)NC(=O)[C@@H](NC(=O)[C@H](Cc1c[nH]cn1)NC(=O)[C@@H](NC(C)=O)C(C)C)C(C)C)C(=O)N1CCC[C@H]1C(=O)N[C@@H](C)C(=O)N[C@@H](CC(=O)O)C(=O)N[C@@H](CC(C)C)C(=O)N[C@@H](Cc1c[nH]c2ccccc12)C(=O)N[C@@H](CCC(=O)O)C(=O)N[C@@H](Cc1c[nH]c2ccccc12)C(=O)N[C@H](C(=O)N[C@@H](CCCNC(=N)N)C(=O)N[C@@H](CCCNC(=N)N)C(N)=O)C(C)C [SEQ ID NO: 113] (Ac-VHVQIPADLWEWVRR-NH2) | permeability compared to high permeability standard Rhodamine B (in words) [1]: higher permeability compared to Rhodamine B
< 50 µM | – | < 500 nM | 8.99 | -0.21 | -3.59 | CC(=O)N[C@H](C(=O)N[C@@H](Cc1c[nH]cn1)C(=O)N[C@H](C(=O)N[C@H](C(=O)N[C@@H](Cc1ccccc1)C(=O)N1CCC[C@H]1C(=O)N[C@@H](C)C(=O)N[C@@H](CC(=O)O)C(=O)N[C@@H](CC(C)C)C(=O)N[C@@H](Cc1c[nH]c2ccccc12)C(=O)N[C@@H](CCC(=O)O)C(=O)N[C@@H](Cc1c[nH]c2ccccc12)C(=O)N[C@H](C(=O)N[C@@H](CCCNC(=N)N)C(=O)N[C@@H](CCCNC(=N)N)C(N)=O)C(C)C)[C@@H](C)O)C(C)C)C(C)C [SEQ ID NO: 114] (Ac-VHVTFPADLWEWVRR-NH2) | –
< 50 µM | 68.8 ×10⁻⁶ cm/s | < 500 nM | 8.99 | -5.94 | -3.91 | CC[C@H](C)[C@H](NC(=O)[C@@H](NC(=O)[C@@H](NC(=O)[C@H](Cc1c[nH]cn1)NC(=O)[C@@H](NC(C)=O)C(C)C)C(C)C)[C@@H](C)O)C(=O)N1CCC[C@H]1C(=O)N[C@@H](CCC(N)=O)C(=O)N[C@@H](CC(=O)O)C(=O)N[C@@H](CC(C)C)C(=O)N[C@@H](Cc1c[nH]c2ccccc12)C(=O)N[C@@H](CCC(=O)O)C(=O)N[C@@H](Cc1c[nH]c2ccccc12)C(=O)N[C@H](C(=O)N[C@@H](CCCNC(=N)N)C(=O)N[C@@H](CCCNC(=N)N)C(N)=O)C(C)C [SEQ ID NO: 115] (Ac-VHVTIPQDLWEWVRR-NH2) | permeability compared to high permeability standard Rhodamine B (in words) [1]: higher permeability compared to Rhodamine B
< 50 µM | 47.1 ×10⁻⁶ cm/s | < 500 nM | 8.99 | -0.51 | -1.47 | CC[C@H](C)[C@H](NC(=O)[C@@H](NC(=O)[C@@H](NC(=O)[C@H](Cc1c[nH]cn1)NC(=O)[C@@H](NC(C)=O)C(C)C)C(C)C)[C@@H](C)O)C(=O)N1CCC[C@H]1C(=O)N[C@@H](C)C(=O)N[C@@H](CC(=O)O)C(=O)N[C@@H](CC(C)C)C(=O)N[C@@H](Cc1c[nH]c2ccccc12)C(=O)N[C@@H](CCC(=O)O)C(=O)N[C@@H](Cc1c[nH]c2ccccc12)C(=O)N[C@@H](Cc1ccccc1)C(=O)N[C@@H](CCCNC(=N)N)C(=O)N[C@@H](CCCNC(=N)N)C(N)=O [SEQ ID NO: 121] (Ac-VHVTIPADLWEWFRR-NH2) | –
– | – | – | – | – | – | ixekizumab | patient population with severity of the disease reduced by at least 75% (PASI75) (IL-17A): 80%
– | – | – | – | – | – | secukinumab | patient population with severity of the disease reduced by at least 75% (PASI75) (IL-17A): 80%

Compound | solubility [3] | Papp ([4]; Permeability (Papp)) | IC50 [5] | IP (isoelectric point) [2] | logP [2, 6] | logD [2, 7] | further results
CC[C@H](C)[C@H](NC(C)=O)C(=O)N[C@@H](Cc1c[nH]cn1)C(=O)N[C@H](C(=O)N[C@H](C(=O)N[C@H](C(=O)N1CCC[C@H]1C(=O)N[C@@H](C)C(=O)N[C@@H](CC(=O)O)C(=O)N[C@@H](CC(C)C)C(=O)N[C@@H](Cc1c[nH]c2ccccc12)C(=O)N[C@@H](CC(=O)O)C(=O)N[C@@H](Cc1c[nH]c2ccccc12)C(=O)N[C@H](C(=O)N[C@@H](CC(N)=O)C(=O)N[C@@H](CCCCN)C(N)=O)[C@@H](C)CC)[C@@H](C)CC)[C@@H](C)O)C(C)C [SEQ ID NO: 1, reference compound] (Ac-IHVTIPADLWDWINK-NH2) | > 10000 µM | 19.3 ×10⁻⁶ cm/s | – | – | – | – | logP ([2]; logP): -5.98; logD ([2]; pH 7.4, Log D (7.4)): -3.68; Papp ([4]; Permeability (Papp ± SE)): 19.3 ×10⁻⁶ cm/s; Kd (mouse IL-17A): 3700 nM
